In ChEMBL document CHEMBL4118097, “Selective Inhibitors of Dual Leucine Zipper Kinase (DLK, MAP3K12) with Activity in a Model of Alzheimer's Disease” (J Med Chem, 2017):

Tests used:
[1] = biological target: T1, Mitogen-activated protein kinase kinase kinase 12 (Homo sapiens, UniProt Q12852); experiment: Binding affinity to N-terminally GST-tagged wild type human DLK (1 to 520 residues) expressed in sf21 insect cells using N-terminally His-tagged MKK4 K131M as substrate after 60 mins in presence of ATP by TR-FRET assay
T1 sequence (Q12852 whole entry): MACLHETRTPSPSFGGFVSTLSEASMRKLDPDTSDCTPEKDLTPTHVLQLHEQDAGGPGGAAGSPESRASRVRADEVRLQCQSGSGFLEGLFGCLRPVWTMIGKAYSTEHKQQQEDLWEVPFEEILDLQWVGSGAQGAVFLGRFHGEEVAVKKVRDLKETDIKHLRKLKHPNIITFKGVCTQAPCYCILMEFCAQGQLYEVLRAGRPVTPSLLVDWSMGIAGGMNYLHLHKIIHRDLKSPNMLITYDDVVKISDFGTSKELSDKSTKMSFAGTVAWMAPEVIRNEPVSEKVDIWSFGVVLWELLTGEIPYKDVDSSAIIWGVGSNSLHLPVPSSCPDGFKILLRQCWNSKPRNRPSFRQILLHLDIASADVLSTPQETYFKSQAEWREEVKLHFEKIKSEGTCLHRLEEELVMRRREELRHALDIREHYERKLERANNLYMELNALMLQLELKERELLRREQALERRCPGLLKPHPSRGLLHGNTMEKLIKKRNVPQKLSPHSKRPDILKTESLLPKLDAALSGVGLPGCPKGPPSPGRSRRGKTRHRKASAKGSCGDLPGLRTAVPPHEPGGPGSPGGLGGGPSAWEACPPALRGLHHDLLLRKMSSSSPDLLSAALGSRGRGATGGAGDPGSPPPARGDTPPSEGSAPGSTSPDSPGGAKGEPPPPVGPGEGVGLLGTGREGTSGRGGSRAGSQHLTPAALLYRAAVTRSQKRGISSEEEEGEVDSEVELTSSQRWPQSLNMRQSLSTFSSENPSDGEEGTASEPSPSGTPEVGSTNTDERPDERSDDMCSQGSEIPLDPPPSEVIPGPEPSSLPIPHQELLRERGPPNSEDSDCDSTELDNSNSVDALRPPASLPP

[2] = biological target: T1, Mitogen-activated protein kinase kinase kinase 12; experiment: Inhibition of doxycycline inducible human DLK transfected in HEK293 cells assessed as JNK phosphorylation after […] by Hoechst-33342 staining-based assay; format: cell-based
[3] = tested on: MDR1 (P-gp), human; experiment: Efflux ratio of permeability from basolateral to apical side over apical to basolateral side in MDCK cells harboring human MDR1; format: ADME, cell-based, Canis lupus familiaris; conditions: dog
[4] = tested on: MDR1 (P-gp), human; experiment: Permeability from apical side to basolateral side in MDCK1 cells harboring human MDR1; format: ADME, cell-based, Canis lupus familiaris; conditions: dog, MDCK-MDR1; read-out: permeability

| Ki [1] | IC50 [2] | efflux ratio [3] | Papp A→B [4] | Compound |
| --- | --- | --- | --- | --- |
| 16 nM | 180 nM | – | – | Nc1ncc(-c2cc([C@H]3[C@@H]4CN(C5COC5)C[C@@H]43)n(CC(F)(F)F)n2)cc1C(F)(F)F |
| 7 nM | 873 nM | – | – | COc1cc(-c2cc([C@H]3[C@@H]4CN(C5COC5)C[C@@H]43)n(C(C)C)n2)cnc1N |
| – | 1200 nM | – | – | CC(C)n1nc(-c2cnc(N)c(C(F)F)c2)cc1[C@H]1[C@@H]2CN(C3COC3)C[C@@H]21 |
| – | 328 nM | – | – | CC(C)n1nc(-c2cnc(N)c(OC(F)F)c2)cc1[C@H]1[C@@H]2CN(C3COC3)C[C@@H]21 |
| 9 nM | 202 nM | – | – | Nc1ncc(-c2cc([C@H]3[C@@H]4CN(C5COC5)C[C@@H]43)n(CC3CCCC3)n2)cc1C(F)(F)F |
| – | 574 nM | – | – | CC(C)n1nc(-c2cnc3[nH]cc(Cl)c3c2)cc1C1CCN(C2COC2)CC1 |
| – | 2800 nM | – | – | CC(C)n1nc(-c2cnc3[nH]cc(F)c3c2)cc1C1CCN(C2COC2)CC1 |
| – | 485 nM | – | – | CC(C)n1nc(-c2cnc3[nH]cc(C(F)(F)F)c3c2)cc1C1CCN(C2COC2)CC1 |
| 6 nM | 302 nM | – | – | CC(=O)N1C[C@@H]2[C@H](C1)[C@H]2c1cc(-c2cnc(N)c(C(F)(F)F)c2)nn1C(C)C |
| 4 nM | 303 nM | – | – | Cc1c[nH]c2ncc(-c3cc(C4CCN(C5COC5)CC4)n(C(C)C)n3)cc12 |
| 4 nM | 208 nM | – | – | CC(O)CN1C[C@@H]2[C@H](C1)[C@H]2c1cc(-c2cnc(N)c(C(F)(F)F)c2)nn1C(C)C (some centres undefined) |
| 67 nM | 1300 nM | – | – | Cn1nc(-c2cnc(N)c(OC(F)(F)F)c2)cc1[C@H]1[C@@H]2CN(C3COC3)C[C@@H]21 |

The remaining lines, values behind:

| Compound | Ki [1] | IC50 [2] | efflux ratio [3] | Papp A→B [4] |
| --- | --- | --- | --- | --- |
| Cn1nc(-c2cnc(N)c(C(F)(F)F)c2)cc1[C@H]1[C@@H]2CN(C3COC3)C[C@@H]21 | 82 nM | 1800 nM | – | – |
| COCCN1C[C@@H]2[C@H](C1)[C@H]2c1cc(-c2cnc(N)c(C(F)(F)F)c2)nn1C(C)C | 9 nM | 265 nM | – | – |
| Cc1cc(-c2cc(C3CCN(C4COC4)CC3)n(C(C)C)n2)cnc1N | > 1600 nM | – | – | – |
| CC(C)n1nc(-c2cnc(N)c(C(F)(F)F)c2)cc1[C@H]1[C@@H]2CN(CC(F)F)C[C@@H]21 | – | 611 nM | 0.3 | 7.9 ×10⁻⁶ cm/s |
| CC(C)n1nc(-c2cnc(N)c(C(F)(F)F)c2)cc1C1CCN(C2COC2)CC1 | – | 1900 nM | – | – |
| CC(C)n1nc(-c2cnc(N)c(Cl)c2)cc1C1CCN(C2COC2)CC1 | – | 1700 nM | – | – |
| CC(C)n1nc(-c2cnc(N)c(C(F)(F)F)c2)cc1[C@H]1[C@@H]2CN(CC3COC3)C[C@@H]21 | 5 nM | 274 nM | – | – |
| CCn1nc(-c2cnc(N)c(C(F)(F)F)c2)cc1[C@H]1[C@@H]2CN(C3COC3)C[C@@H]21 | 3 nM | 406 nM | – | – |
| CC(C)(O)Cn1nc(-c2cnc(N)c(C(F)(F)F)c2)cc1[C@H]1[C@@H]2CN(C3COC3)C[C@@H]21 | 23 nM | 829 nM | – | – |
| CC(C)Cn1nc(-c2cnc(N)c(C(F)(F)F)c2)cc1[C@H]1[C@@H]2CN(C3COC3)C[C@@H]21 | 3 nM | 99 nM | – | – |
| Nc1ncc(-c2cc([C@H]3[C@@H]4CN(C5COC5)C[C@@H]43)n(CC3CC3)n2)cc1OC(F)(F)F | 3 nM | 304 nM | – | – |
